Experimental data reported in patent US20140328951A1, “Composition for Preventing and Treating Vision Deterioration and Age-Related Macular Degeneration through Retinal Repair Using Ginseng/Red Ginseng Extracts and Ginsenoside” (GBIOMIX. CO., LTD., priority 2011, published 2014).

Legend:
human Bruch's membrane = assay: Hydraulic conductivity of Bruch's membrane in open-type Ussing chambers; conditions: 24 hours incubation
Protocol: Bruch's samples were mounted in open-type Ussing chambers and perfused with Tris-HCl buffer. Eluted samples (fluid coming through Bruch's membrane) were collected and measured for fluid transport. Control was perfused with Tris-HCl buffer whilst others were perfused with ginseng fractions for 24 hours.
Transport was tested as described in Example 3, and measured after 24 hours incubation with ginsenosides.
Transport was tested as described in Example 3, and measured after 24 hours incubation with 10% red ginseng extract.

[1] = test system: Retinal Pigment Epithelium (RPE) of Pig Eyes; assay: Release of MMPs from RPE of pig eyecups (gelatin zymography); assay type: cell-based; conditions: pig eyecup
Protocol: Pig whole eyecup preparations of RPE were used in these experiments. Standard buffer for incubations utilised […] supplemented with foetal calf serum and antibiotics. Eyecups were incubated in this basal medium as control and in medium containing ginseng extract. Following a 6-24 hour incubation, the incubating medium was collected and subjected to gelatin zymography to analyse the type and level of MMP species present. In control medium, both pro- and active MMP 2&9 species are released continuously from the RPE (FIG. 7). […] This effect of KRG is conducive for regenerating Bruch's membrane. […]

[2] = 6-24 hour incubation, gelatin zymography, Ginseng extract at 10%

## CC(C)=CCC[C@](C)(O[C@@H]1O[C@H](CO)[C@@H](O)[C@H](O)[C@H]1O)[C@H]1CC[C@]2(C)[C@@H]1[C@H](O)C[C@@H]1[C@@]3(C)CC[C@H](O)C(C)(C)[C@@H]3CC[C@]12C [Compound K, 20-O-β-d-glucopyranosyl-20(S)-protopanaxadiol]
Human Bruch's membrane; 190 ug/ml
  Effect on hydraulic conductivity of human Bruch's membrane (in words): increased hydraulic conductivity
Human Bruch's membrane; 190 ug/ml, 5 donors
  Fold change in hydraulic conductivity over basal: 1.45 ± 0.15
[1]; [2]
  Release of active MMP2 from the RPE: consistently increased
  Release of pro-MMP2 from the RPE: consistently increased
  Release of pro-MMP9 from the RPE: consistently increased

## CC(C)=CCC[C@](C)(O[C@@H]1O[C@H](CO[C@@H]2O[C@H](CO)[C@@H](O)[C@H](O)[C@H]2O)[C@@H](O)[C@H](O)[C@H]1O)[C@H]1CC[C@]2(C)[C@@H]1[C@H](O)C[C@@H]1[C@@]3(C)CC[C@H](O[C@@H]4O[C@H](CO)[C@@H](O)[C@H](O)[C@H]4O[C@@H]4O[C@H](CO)[C@@H](O)[C@H](O)[C@H]4O)C(C)(C)[C@@H]3CC[C@]12C [Rb1]
Human Bruch's membrane; 200 ug/ml
  Effect on hydraulic conductivity of human Bruch's membrane (in words): increased
Human Bruch's membrane; 200 ug/ml, 1 donor
  Fold change in hydraulic conductivity over basal: 1.27
[1]; [2]
  Activated HMW1 level: increased activated HMW1 levels
  Release of active MMP2 from the RPE: did increase
  Release of active MMP9 from the RPE: without effect
  Release of pro-MMP2 from the RPE: did increase
  Release of pro-MMP9 from the RPE: effective in reducing the level of pro-MMP9

## CC(C)=CCC[C@](C)(O[C@@H]1O[C@H](CO)[C@@H](O)[C@H](O)[C@H]1O)[C@H]1CC[C@]2(C)[C@@H]1[C@H](O)C[C@@H]1[C@@]3(C)CC[C@H](O)C(C)(C)[C@@H]3[C@@H](O[C@@H]3O[C@H](CO)[C@@H](O)[C@H](O)[C@H]3O)C[C@]12C [Rg1]
Human Bruch's membrane; 200 ug/ml
  Effect on hydraulic conductivity of human Bruch's membrane (in words): increased
Human Bruch's membrane; 200 ug/ml, 1 donor
  Fold change in hydraulic conductivity over basal: 1.2
[1]; [2]
  Release of pro-MMP9 from the RPE: increased the amount of pro-MMP9
[1]; FIG. 7
  Release of MMPs from the RPE (overall): without effect
